Test results: patent publication US20210220374A1, “METHODS OF TREATING TE[…]” (Clarus Therapeutics, Inc., priority 2013, published 2021)
Where “and” joins values, the source holds several entries; their conditions need not be identical. Equal entries are not always repeated.

Assay: Optimal sampling time: pooled steady-state serum T data of LOT-AA and LOT-BB, 200 mg T BID as TU
Assay type: in vivo, hypogonadal men
Method: An investigation was conducted to identify a single optimal sampling time for monitoring the responsiveness of hypogonadal male patients subjects to chronic BID dosing of T using a SEDDS formulation of TU. Concentration data and derived pharmacokinetic parameters for 41 subjects from two studies (LOT-AA and LOT-BB) where subjects received 200 mg BID of T, as TU, for at least seven days were used in this investigation. Correlation and contingency table approaches were used in the investigation.
Concentration data and pharmacokinetic parameters from hypogonadal male subjects that participated in study LOT-AA and study LOT-BB were combined into a single data set. From study LOT-AA, only the information from Day 7 of Treatment 3 (8 days of treatment with 200 mg BID of T, as TU) was used. Study LOT-AA contributed data from 26 subjects treated for 7 days, and study LOT-BBBB contributed data from 15 subjects treated for 28 days with 200 mg BID of T, as TU. Combining of the data from these two groups of subjects is supported by the finding from study LOT-BBBB that T steady-state is reached in 5-7 days.
The sample collection times for these two studies both spanned a 12-hour window, but not all sample collection times were common to both studies. LOT-AA used sample collection times of 0, 1, 2, 4, 8 and 12 hours; LOT-BBBB used sample collection times of 0, 1.5, 3, 4, 5, 6, 8 and 12 hours. The current analysis used the superset of the combined set of collection times (0, 1, 1.5, 2, 3, 4, 5, 6, 8 and 12 hours). Concentration values that were missing for a subject in either of the data sets at a particular sample collection time were estimated by linear interpolation, using the existing nearest neighbor concentration values for that subject, i.e., interpolation of missing data was subject-specific.

[1] = LOT-AA subjects, estimated by linear interpolation
[2] = LOT-BB subjects, estimated by linear interpolation
[3] = targeted Cavg 300-1000, 41 subjects

CCCCCCCCCCC(=O)O[C@H]1CC[C@H]2[C@@H]3CCC4=CC(=O)CC[C@]4(C)[C@H]3CC[C@]12C [TU, testosterone undecanoate]
T concentration 3 hr, individual subjects [1]: 777 ng/dL and 785 ng/dL and 590 ng/dL and 433 ng/dL and 984 ng/dL and 1030 ng/dL and 1345 ng/dL and 936 ng/dL and 164 ng/dL and 183 ng/dL and 193 ng/dL and 353 ng/dL and 844 ng/dL and 700 ng/dL and 411 ng/dL and 891 ng/dL and 438 ng/dL and 271 ng/dL and 243 ng/dL and 160 ng/dL and 415 ng/dL and 308 ng/dL and 1270 ng/dL and 918 ng/dL and 837 ng/dL and 546 ng/dL
T concentration 5 hr, individual subjects [1]: 978 ng/dL and 778 ng/dL and 686 ng/dL and 595 ng/dL and 865 ng/dL and 847 ng/dL and 1289 ng/dL and 886 ng/dL and 209 ng/dL and 248 ng/dL and 324 ng/dL and 311 ng/dL and 1065 ng/dL and 788 ng/dL and 418 ng/dL and 1012 ng/dL and 579 ng/dL and 427 ng/dL and 450 ng/dL and 205 ng/dL and 380 ng/dL and 503 ng/dL and 1533 ng/dL and 740 ng/dL and 768 ng/dL and 969 ng/dL
T concentration 6 hr, individual subjects [1]: 856 ng/dL and 606 ng/dL and 540 ng/dL and 590 ng/dL and 690 ng/dL and 653 ng/dL and 1048 ng/dL and 703 ng/dL and 232 ng/dL and 248 ng/dL and 423 ng/dL and 314 ng/dL and 789 ng/dL and 648 ng/dL and 415 ng/dL and 1145 ng/dL and 503 ng/dL and 539 ng/dL and 622 ng/dL and 216 ng/dL and 367 ng/dL and 639 ng/dL and 1296 ng/dL and 597 ng/dL and 588 ng/dL and 1283 ng/dL
T concentration […], individual subjects [1]: 371 ng/dL and 435 ng/dL and 297 ng/dL and 272 ng/dL and 632 ng/dL and 595 ng/dL and 845 ng/dL and 802 ng/dL and 162 ng/dL and 87 ng/dL and 150 ng/dL and 427 ng/dL and 214 ng/dL and 312 ng/dL and 454 ng/dL and 1081 ng/dL and 267 ng/dL and 241 ng/dL and 204 ng/dL and 116 ng/dL and 492 ng/dL and 237 ng/dL and 757 ng/dL and 654 ng/dL and 457 ng/dL and 403 ng/dL
T concentration 1 hr, individual subjects (LOT-AA subjects, observed): 287 ng/dL and 251 ng/dL and 246 ng/dL and 280 ng/dL and 335 ng/dL and 170 ng/dL and 530 ng/dL and 801 ng/dL and 183 ng/dL and 57 ng/dL and 140 ng/dL and 456 ng/dL and 80 ng/dL and 153 ng/dL and 506 ng/dL and 1260 ng/dL and 314 ng/dL and 256 ng/dL and 199 ng/dL and 105 ng/dL and 547 ng/dL and 225 ng/dL and 744 ng/dL and 354 ng/dL and 187 ng/dL and 368 ng/dL
T concentration 2 hr, individual subjects (LOT-AA subjects, observed): 454 ng/dL and 619 ng/dL and 347 ng/dL and 264 ng/dL and 928 ng/dL and 1020 ng/dL and 1160 ng/dL and 802 ng/dL and 140 ng/dL and 116 ng/dL and 159 ng/dL and 397 ng/dL and 348 ng/dL and 471 ng/dL and 402 ng/dL and 902 ng/dL and 219 ng/dL and 226 ng/dL and 208 ng/dL and 126 ng/dL and 437 ng/dL (2×) and 248 ng/dL and 770 ng/dL and 953 ng/dL and 726 ng/dL
T concentration 1 hr, individual subjects [2]: 545 ng/dL and 531 ng/dL and 279 ng/dL (2×) and 92 ng/dL and 152 ng/dL and 161 ng/dL and 234 ng/dL and 446 ng/dL and 869 ng/dL and 248 ng/dL and 365 ng/dL and 127 ng/dL and 233 ng/dL and 271 ng/dL
T concentration 2 hr, individual subjects [2]: 506 ng/dL and 725 ng/dL and 490 ng/dL and 149 ng/dL and 168 ng/dL and 394 ng/dL and 281 ng/dL and 812 ng/dL and 770 ng/dL and 461 ng/dL and 274 ng/dL and 166 ng/dL and 350 ng/dL and 346 ng/dL and 349 ng/dL
T concentration 3 hr, individual subjects (LOT-BB subjects, observed): 425 ng/dL and 778 ng/dL and 723 ng/dL and 243 ng/dL and 241 ng/dL and 873 ng/dL and 360 ng/dL and 1440 ng/dL and 684 ng/dL and 908 ng/dL and 179 ng/dL and 259 ng/dL and 553 ng/dL and 461 ng/dL and 445 ng/dL
T concentration 5 hr, individual subjects (LOT-BB subjects, observed): 486 ng/dL and 1020 ng/dL and 332 ng/dL and 125 ng/dL and 1230 ng/dL and 714 ng/dL and 1270 ng/dL and 1690 ng/dL and 514 ng/dL and 999 ng/dL and 214 ng/dL and 458 ng/dL and 1330 ng/dL and 289 ng/dL and 507 ng/dL
T concentration 6 hr, individual subjects (LOT-BB subjects, observed): 671 ng/dL and 1660 ng/dL and 292 ng/dL and 238 ng/dL and 828 ng/dL and 773 ng/dL and 972 ng/dL and 1340 ng/dL and 593 ng/dL and 538 ng/dL and 620 ng/dL and 351 ng/dL and 1420 ng/dL and 320 ng/dL and 441 ng/dL
T concentration […], individual subjects (LOT-BB subjects, observed): 547 ng/dL and 699 ng/dL and 374 ng/dL and 102 ng/dL and 132 ng/dL and 155 ng/dL and 242 ng/dL and 498 ng/dL and 813 ng/dL and 237 ng/dL and 321 ng/dL and 120 ng/dL and 249 ng/dL and 288 ng/dL and 301 ng/dL
C(0), Max (serum T, N 41): 1600 ng/dL
C(0), Mean (serum T, N 41): 363 ng/dL
C(0), Median (serum T, N 41): 244 ng/dL
C(0), Min (serum T, N 41): 61.0 ng/dL
C(1), Max (serum T, N 41): 1260 ng/dL
C(1), Mean (serum T, N 41): 338 ng/dL
C(1), Median (serum T, N 41): 271 ng/dL
C(1), Min (serum T, N 41): 57.3 ng/dL
C(1.5), Max (serum T, N 41): 1081 ng/dL
C(1.5), Mean (serum T, N 41): 391 ng/dL
C(1.5), Median (serum T, N 41): 312 ng/dL
C(1.5), Min (serum T, N 41): 86.6 ng/dL
C(2), Max (serum T, N 41): 1160 ng/dL
C(2), Mean (serum T, N 41): 466 ng/dL
C(2), Median (serum T, N 41): 397 ng/dL
C(2), Min (serum T, N 41): 116 ng/dL
C(3), Max (serum T, N 41): 1440 ng/dL
C(3), Mean (serum T, N 41): 600 ng/dL
C(3), Median (serum T, N 41): 546 ng/dL
C(3), Min (serum T, N 41): 160 ng/dL
C(4), Max (serum T, N 41): 1770 ng/dL
C(4), Mean (serum T, N 41): 745 ng/dL
C(4), Median (serum T, N 41): 720 ng/dL
C(4), Min (serum T, N 41): 127 ng/dL
C(5), Max (serum T, N 41): 1690 ng/dL
C(5), Mean (serum T, N 41): 708 ng/dL
C(5), Median (serum T, N 41): 686 ng/dL
C(5), Min (serum T, N 41): 125 ng/dL
C(6), Max (serum T, N 41): 1660 ng/dL
C(6), Mean (serum T, N 41): 673 ng/dL
C(6), Median (serum T, N 41): 606 ng/dL
C(6), Min (serum T, N 41): 216 ng/dL
C(8), Max (serum T, N 41): 1910 ng/dL
C(8), Mean (serum T, N 41): 537 ng/dL
C(8), Median (serum T, N 41): 367 ng/dL
C(8), Min (serum T, N 41): 225 ng/dL
C(12), Max (serum T, N 41): 757 ng/dL
C(12), Mean (serum T, N 41): 278 ng/dL
C(12), Median (serum T, N 41): 222 ng/dL
C(12), Min (serum T, N 41): 84.2 ng/dL
Cavg, Max (serum T, N 41): 1057 ng/dL
Cavg, Mean (serum T, N 41): 517 ng/dL
Cavg, Median (serum T, N 41): 454 ng/dL
Cavg, Min (serum T, N 41): 192 ng/dL
Cmax, Max (serum T, N 41): 1910 ng/dL
Cmax, Mean (serum T, N 41): 970 ng/dL
Cmax, Median (serum T, N 41): 951 ng/dL
Cmax, Min (serum T, N 41): 249 ng/dL
Number of subjects, Cavg in range [3]: 33
Number of subjects, Cavg too high [3]: 3
Number of subjects, Cavg too low [3]: 5
